Reference: patent US10039282B2, “Six-membered C—N-bonded aryl sulphide and aryl sulphoxide derivatives as pesticides” (BAYER CROPSCIENCE AKTIENGESELLSCHAFT, priority 2013, dated 2018)
Read-outs that look alike come from different tables or passages of the source.

Columns and labels:
Tetranychus urticae = Tetranychus urticae spray test, OP-resistant (bean leaf discs); assay type: in vivo; details: 500 g/ha, after 6 days
Method: 4. Tetranychus urticae—Spray Test, OP-Resistant
Solvent: 78.0 parts by weight of acetone
• 1.5 parts by weight of dimethylformamide Emulsifier: alkylaryl polyglycol ether
To produce further test concentrations, the preparation is diluted with emulsifier-containing water.
After 6 days, the efficacy in % is determined. 100% means that all the spider mites have been killed; 0% means that none of the spider mites have been killed.

[1] = log P by reversed-phase HPLC analogously to OECD Guideline 117; assay type: physicochemical; details: for logP (HCOOH): pH 2.7; for logP (neutral): pH 7.8
Method: The log P values were determined analogously to OECD Guideline 117 (EC Directive 92/69/EEC) by HPLC (high-performance liquid chromatography) using reversed-phase columns (C 18), by the following methods:
[a] The LC-MS determination in the acidic range is effected at pH 2.7 with 0.1% aqueous formic acid and acetonitrile (contains 0.1% formic acid) as eluents; linear gradient from 10% acetonitrile to 95% acetonitrile. log P^[…] is also referred to as log P(HCOOH). [b] LC-MS determination in the neutral range is effected at pH 7.8 with 0.001 molar aqueous ammonium hydrogencarbonate solution and acetonitrile as eluents; linear gradient from 10% acetonitrile to 95% acetonitrile. log P^[…] is also referred to as log P(neutral).
Calibration is effected with solutions of a homologous series of unbranched alkan-2-ones (having 3 to 16 carbon atoms) with known log P values (log P values determined on the basis of the retention times by linear interpolation between two successive alkanones).

[2] = reversed-phase C18 HPLC column, acidic range, pH 2.7, 0.1% aqueous formic acid/acetonitrile, read-out: logP (HCOOH)
[3] = reversed-phase C18 HPLC column, neutral range, pH 7.8, 0.001 molar aqueous ammonium hydrogencarbonate/acetonitrile, read-out: logP (neutral)
[4] = acidic range, pH 2.7, 0.1% aqueous formic acid/acetonitrile, read-out: logP (HCOOH)

| SMILES | efficacy (spider mites killed) (Tetranychus urticae) [%] | logP (HCOOH) [1] | also measured |
| --- | --- | --- | --- |
| Cc1cc(F)c(-n2cnc(C3CC3)cc2=O)cc1[S+]([O-])CC(F)(F)F (racemic) [Example 7] | 100 |  |  |
| CCc1cc(=O)n(-c2cc([S+]([O-])CC(F)(F)F)c(C)cc2F)cn1 (racemic) [Example 10] | 100 |  |  |
| Cc1cc(C)c([S+]([O-])CC(F)(F)F)cc1-n1c(C)nc(C(F)(F)F)cc1=O (racemic) [Example 14] | 100 |  |  |
| CCc1cc(=O)n(-c2ccc(C)c([S+]([O-])CC(F)(F)F)c2)cn1 (racemic) [Example 17] | 100 |  |  |
| Cc1cc(F)c(-n2c(C)nc(C(F)(F)F)cc2=O)cc1[S+]([O-])CC(F)(F)F (racemic) [Example 19] | 100 |  |  |
| CCc1cc(=O)n(-c2cc([S+]([O-])CC(F)(F)F)c(C)cc2C)cn1 (racemic) [Example 24] | 90 |  |  |
| Cc1ccc(-n2cnccc2=O)cc1[S+]([O-])CC(F)(F)F (racemic) [Example 28] | 90 |  |  |
| O=c1cc(C(F)(F)F)ncn1-c1cc([S+]([O-])CC(F)(F)F)c(Cl)cc1F (racemic) [Example 29] | 100 |  |  |
| Cc1cc(C)c([S+]([O-])CC(F)(F)F)cc1-n1cnc(C2CC2)cc1=O (racemic) [Example 35] | 90 |  |  |
| Cc1cc(C)c([S+]([O-])CC(F)(F)F)cc1-n1cnc(C)c(C)c1=O (racemic) [Example 48] | 90 |  |  |
| Cc1cc(F)c(-n2cnc(C(C)C)cc2=O)cc1[S+]([O-])CC(F)(F)F (racemic) [Example 52] | 100 |  |  |
| Cc1cc(F)c(-n2c(C)nc(C(F)(F)F)cc2=O)cc1SCC(F)(F)F [Example 8] | 100 |  |  |
| Cc1cc(C)c(-n2cnc(C)c(C)c2=O)cc1SCC(F)(F)F [Example 13] | 100 |  |  |
| O=c1cc(C(F)(F)F)ncn1-c1cc(SCC(F)(F)F)c(Br)cc1F [Example 15] | 100 |  |  |
| O=c1cc(C(F)(F)F)ncn1-c1cc(SCC(F)(F)F)c(Cl)cc1F [Example 16] | 100 |  |  |
| Cc1cc(=O)n(-c2cc(SCC(F)(F)F)c(C)cc2C)cn1 [Example 20] | 100 |  |  |
| Cc1cc(C)c(-n2cnc(C3CC3)cc2=O)cc1SCC(F)(F)F [Example 23] | 100 |  |  |
| Cc1cc(F)c(-n2cnc(C(C)C)cc2=O)cc1SCC(F)(F)F [Example 31] | 100 |  |  |
| Cc1cc(F)c(-n2cnc(C(F)F)cc2=O)cc1SCC(F)(F)F [Example 32] | 100 |  |  |
| Cc1cc(C)c(-n2cnc(C(F)(F)C(F)(F)F)cc2=O)cc1SCC(F)(F)F [Example 36] | 100 |  |  |
| Cc1cc(F)c(-n2cnc(C3CC3)cc2=O)cc1SCC(F)(F)F [Example 37] | 100 |  |  |
| CCc1cc(=O)n(-c2cc(SCC(F)(F)F)c(C)cc2C)cn1 [Example 39] | 100 |  |  |
| CCc1cc(=O)n(-c2ccc(C)c(SCC(F)(F)F)c2)cn1 [Example 43] | 90 |  |  |
| Cc1cc(C)c(-n2cnc(C(C)(F)F)cc2=O)cc1SCC(F)(F)F [Example 51] | 100 |  |  |
| O=c1cc(C(F)(F)F)ncn1-c1ccc(Cl)c(SCC(F)(F)F)c1 [Example 54] | 100 |  |  |

| SMILES | efficacy (spider mites killed) (Tetranychus urticae) [%] | logP (HCOOH) [1] | also measured |
| --- | --- | --- | --- |
| CCc1cc(=O)n(-c2cc(SCC(F)(F)F)c(C)cc2F)cn1 [Example 57] | 100 |  |  |
| Cc1cc(F)c(NC(=O)/C=C(\N)C(F)(F)F)cc1SCC(F)(F)F [IIa-1, 3-Amino-4,4,4-trifluoro-N-{2-fluoro-4-methyl-5-[(2,2,2-trifluoroethyl)sulphanyl]phenyl}but-2-enamide] |  |  | chromatographic logP [1, 2]: 3.61; chromatographic logP [1, 3]: 3.6 |
| Cc1cc(C)c(SCC(F)(F)F)cc1NC(=O)/C=C(\N)C(F)(F)F [IIa-2, 3-Amino-N-[2,4-dimethyl-5-(2,2,2-trifluoroethylsulphanyl)phenyl]-4,4,4-trilluorobut-2-enamide] |  |  | chromatographic logP [1, 2]: 3.63; chromatographic logP [1, 3]: 3.61 |
| NC(=CC(=O)Nc1cc(SCC(F)(F)F)c(Cl)cc1Cl)C(F)(F)F [IIa-3] |  | 4.24 | logP (neutral) [1]: 4.13 |
| NC(=CC(=O)Nc1cc(SCC(F)(F)F)c(Cl)cc1F)C(F)(F)F [IIa-4] |  | 3.83 | logP (neutral) [1]: 3.73 |
| NC(=CC(=O)Nc1cc(SCC(F)(F)F)c(Br)cc1F)C(F)(F)F [IIa-5] |  | 3.88 | logP (neutral) [1]: 3.78 |
| Cc1ccc(NC(=O)C=C(N)C(F)(F)F)cc1SCC(F)(F)F [IIa-6] |  | 3.58 | logP (neutral) [1]: 3.49 |
| NC(=CC(=O)Nc1ccc(Cl)c(SCC(F)(F)F)c1)C(F)(F)F [IIa-7] |  | 3.66 | logP (neutral) [1]: 3.65 |
| Cc1cc(Cl)c(NC(=O)C=C(N)C(F)(F)F)cc1SCC(F)(F)F [IIa-8] |  | 4.05 | logP (neutral) [1]: 3.99 |
| Cc1cc(F)c(NC(=O)C=C(N)C(F)F)cc1SCC(F)(F)F [IIa-9] |  | 3.23 | logP (neutral) [1]: 3.21 |
| Cc1cc(C)c(SCC(F)(F)F)cc1NC(=O)C=C(N)C(F)F [IIa-10] |  | 3.24 | logP (neutral) [1]: 3.15 |
| Cc1cc(F)c(NC(=O)C=C(N)C(C)(F)F)cc1SCC(F)(F)F [IIa-11] |  | 3.55 | logP (neutral) [1]: 3.49 |
| Cc1cc(C)c(SCC(F)(F)F)cc1NC(=O)C=C(N)C(C)(F)F [IIa-12] |  | 3.52 | logP (neutral) [1]: 3.40 |
| Cc1cc(F)c(NC(=O)/C=C(\O)C(F)(F)F)cc1SCC(F)(F)F [XXXI-1, 4,4,4-Trifluoro-N-{2-fluoro-4-methyl-5-[(2,2,2-trifluoroethyl)sulphanyl]phenyl}-3-hydroxybut-2-enamide] |  |  | chromatographic logP [1, 4]: 2.77; chromatographic logP [1, 3]: 1.43 |
| Cc1cc(C)c(SCC(F)(F)F)cc1NC(=O)/C=C(\O)C(F)(F)F [XXXI-2, N-[2,4-Dimethyl-5-(2,2,2-trifluoroethylsulphanyl)phenyl]-4,4,4-trifluoro-3-hydroxybut-2-enamide] |  |  | chromatographic logP [1, 4]: 2.87 |
| O=C(C=C(O)C(F)(F)F)Nc1cc(SCC(F)(F)F)c(Cl)cc1Cl [XXXI-3] |  | 3.13 |  |
| O=C(C=C(O)C(F)(F)F)Nc1cc(SCC(F)(F)F)c(Cl)cc1F [XXXI-4] |  | 2.86 | logP (neutral) [1]: 1.45 |
| O=C(C=C(O)C(F)(F)F)Nc1cc(SCC(F)(F)F)c(Br)cc1F [XXXI-5] |  | 2.93 |  |
| Cc1ccc(NC(=O)C=C(O)C(F)(F)F)cc1SCC(F)(F)F [XXXI-6] |  | 2.80 |  |
| O=C(C=C(O)C(F)(F)F)Nc1ccc(Cl)c(SCC(F)(F)F)c1 [XXXI-7] |  | 2.84 |  |
| Cc1cc(Cl)c(NC(=O)C=C(O)C(F)(F)F)cc1SCC(F)(F)F [XXXI-8] |  | 3.01 | logP (neutral) [1]: 1.44 |
| Cc1cc(F)c(NC(=O)C=C(O)C(F)F)cc1SCC(F)(F)F [XXXI-9] |  | 2.47 |  |
| Cc1cc(C)c(SCC(F)(F)F)cc1NC(=O)C=C(O)C(F)F [XXXI-10] |  | 2.53 |  |
| Cc1cc(F)c(NC(=O)C=C(O)C(C)(F)F)cc1SCC(F)(F)F [XXXI-11] |  | 2.72 |  |
| Cc1cc(C)c(SCC(F)(F)F)cc1NC(=O)C=C(O)C(F)(F)C(F)(F)F [XXXI-14] |  |  | logP (neutral) [1]: 1.63 |
